This is an account of results in ChEMBL document CHEMBL1201862, “PubChem BioAssay data set” (2004).

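Protocol summary: plate cells (96-well), add compound at 5 concentrations, incubate 48 h, interpolate endpoints linearly. Here, GI50 denotes the concentration required for 50% inhibition of growth.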 Activity calls are given as the source filed them. Rule as the data show it: active = GI50 up to about 1.1 µM and inactive = higher. A value given as a limit tells only on which side of the number the result lay.

Some test systems named below: A549; NCI-H23; HCT-116; HCT-15; HOP-92; SNB-19; NCI-H460; SK-MEL-5; NCI/ADR-RES; IGROV-1; EKVX; BT-549; Malme-3M; HT-29; OVCAR-8; RXF 393; MOLT-4; SF-539; MDA-MB-435; OVCAR-4.
Holding throughout (assay): inhibition of tumour cell growth, NCI panel, 48 h

Regarding `Cc1cn(CC2=NCC(C)(C)CN2)c(=O)[nH]c1=O`, the GI50 is > 100 µM (inactive) with A549; > 100 µM (inactive) with NCI-H23; > 100 µM (inactive) in the experiment with HCT-116; above 100 µM with HCT-15; > 100 µM (inactive) in the experiment on HOP-92; > 100 µM (inactive) in the experiment on SNB-19. Moreover, the GI50 in the experiment on NCI-H460, in the experiment on SK-MEL-5, in the experiment with NCI/ADR-RES, with IGROV-1, in the experiment with EKVX and in the experiment with BT-549 was > 100 µM (inactive) throughout. The GI50 with Malme-3M, with HT-29, in the experiment on OVCAR-8 and in the experiment with RXF 393 was > 100 µM (inactive) each time.
In the case of `COC(=O)c1ccc(-c2nc(C#N)c(N)o2)cc1`, the GI50 in the experiment with A549 is > 100 µM (inactive); in the experiment with MOLT-4, > 100 µM (inactive); in the experiment on NCI-H23, 35.8 µM (inactive); with HCT-116, > 100 µM (inactive); in the experiment with HCT-15 it was above 100 µM; with SNB-19, 34.7 µM (inactive). For the same compound, the GI50 was > 100 µM (inactive) in the experiment on NCI-H460; > 100 µM (inactive) with SK-MEL-5; > 100 µM (inactive) with SF-539; 99.8 µM (inactive) in the experiment on IGROV-1; > 100 µM (inactive) with EKVX; 23.8 µM (inactive) with BT-549. In addition, the GI50 in the experiment on Malme-3M was > 100 µM (inactive); with MDA-MB-435, > 100 µM (inactive); with HT-29 it was > 100 µM (inactive); in the experiment with OVCAR-8, 57.1 µM (inactive); in the experiment with OVCAR-4 it was > 100 µM (inactive); in the experiment on RXF 393, > 100 µM (inactive).
With `CCN(CC)CCCNc1nncc2cc3c([nH]c4ccccc43)c(C)c12`, the GI50 is 10.8 µM (inactive) in the experiment on A549; 1.49 µM (inactive) in the experiment with MOLT-4; 14.1 µM (inactive) in the experiment on NCI-H23; 6.01 µM (inactive) in the experiment with HCT-116; 16 µM in the experiment with HCT-15; 12.4 µM (inactive) in the experiment on SNB-19. Further, the GI50 was 5.6 µM (inactive) in the experiment on NCI-H460; 19.3 µM (inactive) in the experiment on SK-MEL-5; 16 µM (inactive) with SF-539; 48.9 µM (inactive) with NCI/ADR-RES; 3.12 µM (inactive) in the experiment with IGROV-1; 8.38 µM (inactive) in the experiment with EKVX. Further, the GI50 is 17.9 µM (inactive) in the experiment on BT-549; 17.6 µM (inactive) with Malme-3M; 18.2 µM (inactive) in the experiment with MDA-MB-435; 4.03 µM (inactive) in the experiment with HT-29; 7.29 µM (inactive) in the experiment with OVCAR-8.
In the case of `CCOC(=O)Nc1ccc2c(c1)c(CCCCCCc1nc3ccccc3c3ccc(NC(=O)OCC)cc13)nc1ccccc12`, the GI50 with A549 was 70 µM (inactive); with MOLT-4, > 100 µM (inactive); with NCI-H23 it was > 100 µM (inactive); in the experiment on HCT-116, 54.3 µM (inactive); in the experiment on HCT-15, above 100 µM; with HOP-92, 21.8 µM (inactive). Moreover, the GI50 with SNB-19 is 30.1 µM (inactive); in the experiment on NCI-H460, 61.9 µM (inactive); in the experiment on SK-MEL-5 it was 78.9 µM (inactive); with SF-539 it was 12.5 µM (inactive); with NCI/ADR-RES it was 41.2 µM (inactive); in the experiment with IGROV-1, > 100 µM (inactive). For the same compound, the GI50 in the experiment on EKVX was < 0.01 µM (active); with Malme-3M, > 10 µM (inactive); in the experiment on MDA-MB-435, 59.7 µM (inactive); with HT-29, > 100 µM (inactive); with OVCAR-8, 25.4 µM (inactive); with OVCAR-4, 29.3 µM (inactive). In addition, in the experiment on RXF 393, the GI50 was 47.2 µM (inactive).
As to `Cc1ncc([N+](=O)[O-])n1CCNC(=O)CCCn1cnc([N+](=O)[O-])n1`, the GI50 with A549 is > 78.3 µM (inactive); in the experiment on MOLT-4 it was > 100 µM (inactive); in the experiment with NCI-H23, > 100 µM (inactive); in the experiment on HCT-116 it was > 100 µM (inactive); in the experiment on HCT-15, above 76.6 µM; in the experiment with HOP-92 it was > 100 µM (inactive). In addition, the GI50 is > 100 µM (inactive) in the experiment with SNB-19; > 100 µM (inactive) with NCI-H460; > 72.4 µM (inactive) with SK-MEL-5; > 100 µM (inactive) in the experiment with SF-539; > 100 µM (inactive) in the experiment with NCI/ADR-RES; > 100 µM (inactive) with IGROV-1. For the same compound, the GI50 with EKVX is > 31.6 µM (inactive); in the experiment with Malme-3M, > 100 µM (inactive); with MDA-MB-435, > 100 µM (inactive); with HT-29, > 100 µM (inactive); in the experiment with OVCAR-8, > 95.9 µM (inactive); in the experiment on OVCAR-4, > 100 µM (inactive). Moreover, the GI50 with RXF 393 is > 100 µM (inactive).
As to `Fc1ccc(/C(=N/Cc2ccccc2)N2CCOCC2)cc1`, the GI50 in the experiment on MOLT-4 is > 100 µM (inactive); with NCI-H23 it was > 100 µM (inactive); in the experiment on HCT-116, > 100 µM (inactive); with HCT-15, above 100 µM; in the experiment on SNB-19, > 100 µM (inactive); in the experiment on NCI-H460 it was > 100 µM (inactive). Further, the GI50 in the experiment with SK-MEL-5, with SF-539, in the experiment on NCI/ADR-RES, in the experiment on IGROV-1, with EKVX and in the experiment with BT-549 was > 100 µM (inactive) each time. The GI50 in the experiment with Malme-3M, in the experiment with MDA-MB-435, with HT-29, in the experiment on OVCAR-8 and in the experiment with RXF 393 was > 100 µM (inactive) each time.
In the case of `CCCCCCCCCc1nn2c(Cc3ccccc3)nnc2s1`, the GI50 in the experiment on A549 was 20.5 µM (inactive); in the experiment on MOLT-4, 17.3 µM (inactive); in the experiment on NCI-H23, 19.2 µM (inactive); in the experiment with HCT-116, 18 µM (inactive); with HCT-15, 19.5 µM; in the experiment on SNB-19, 18.2 µM (inactive). The GI50 in the experiment with NCI-H460 was 18.5 µM (inactive); in the experiment with SK-MEL-5, 15.9 µM (inactive); in the experiment on SF-539, 18.1 µM (inactive); in the experiment on NCI/ADR-RES it was 16.7 µM (inactive); with EKVX it was 15.5 µM (inactive); with BT-549, 18.8 µM (inactive). Also, the GI50 is 26.3 µM (inactive) with MDA-MB-435, 15.3 µM (inactive) in the experiment on OVCAR-8, 20 µM (inactive) in the experiment on OVCAR-4 and 18.5 µM (inactive) in the experiment on RXF 393.
With `Oc1cc2c3c(c1)c1cc4c(cc1c[n+]3CC2)OCO4`, the GI50 with A549 was 5.71 µM (inactive); in the experiment on MOLT-4, 0.242 µM (active); in the experiment on NCI-H23 it was 1.9 µM (inactive); in the experiment with HCT-116 it was 1.55 µM (inactive); with HCT-15, 13.6 µM; in the experiment on HOP-92, 15.2 µM (inactive). Further, the GI50 in the experiment on SNB-19 is 1.8 µM (inactive); in the experiment with NCI-H460, 2.43 µM (inactive); with SK-MEL-5 it was 4.97 µM (inactive); with SF-539, 2.28 µM (inactive); in the experiment with IGROV-1 it was 2.4 µM (inactive); with EKVX, 7.73 µM (inactive). For the same compound, the GI50 in the experiment with BT-549 is 1.77 µM (inactive); with Malme-3M, 1.16 µM (inactive); in the experiment with MDA-MB-435, 5.5 µM (inactive); in the experiment on HT-29, 4.6 µM (inactive); with OVCAR-8, 0.748 µM (active); in the experiment on OVCAR-4 it was 3.64 µM (inactive). Also, in the experiment on RXF 393, the GI50 is 24.5 µM (inactive).
Turning to `CC(=O)Oc1ccc(-c2cc3ccccc3oc2=O)cc1OC(C)=O`, the GI50 in the experiment on A549 is 14.8 µM (inactive); in the experiment with MOLT-4, 3.47 µM (inactive); in the experiment with NCI-H23, 53.2 µM (inactive); with HCT-116, 34.7 µM (inactive); in the experiment with HCT-15 it was 10.7 µM; in the experiment on SNB-19 it was 31.6 µM (inactive). For the same compound, the GI50 with NCI-H460 is 22.4 µM (inactive); in the experiment on SF-539 it was 21.6 µM (inactive); in the experiment with NCI/ADR-RES, 21.3 µM (inactive); with EKVX it was 21.8 µM (inactive); in the experiment on BT-549, 35.2 µM (inactive); in the experiment on Malme-3M, 51.4 µM (inactive). The GI50 with MDA-MB-435 is 27.1 µM (inactive); in the experiment on HT-29, 36 µM (inactive); in the experiment with OVCAR-8, 24.1 µM (inactive); with OVCAR-4 it was 51.3 µM (inactive).
`Cn1c(N/N=C/c2ccccc2)nc(-c2ccc([N+](=O)[O-])cc2)c(C#N)c1=O`: the GI50 in the experiment on A549 was 28.8 µM (inactive); in the experiment with MOLT-4, 10.4 µM (inactive); in the experiment with NCI-H23, 44.3 µM (inactive); with HCT-116, 27.6 µM (inactive); in the experiment on HCT-15, 30.5 µM; in the experiment with HOP-92, 16.5 µM (inactive). Also, the GI50 is > 100 µM (inactive) in the experiment on SNB-19; 32.1 µM (inactive) in the experiment with NCI-H460; 35.4 µM (inactive) in the experiment on SK-MEL-5; 69.2 µM (inactive) with SF-539; 86.3 µM (inactive) with NCI/ADR-RES; 49.3 µM (inactive) with IGROV-1. In addition, the GI50 is 66.7 µM (inactive) in the experiment on EKVX; 33.1 µM (inactive) in the experiment on Malme-3M; > 100 µM (inactive) in the experiment on MDA-MB-435; 45.7 µM (inactive) with HT-29; 34.3 µM (inactive) in the experiment on OVCAR-8; 29 µM (inactive) in the experiment with OVCAR-4. The GI50 in the experiment with RXF 393 was 53.8 µM (inactive).
As for `Cc1ccc2[nH]c(=N/c3ccccc3C)/c(=N\c3ccccc3C)[nH]c2c1`, the GI50 is 20.5 µM (inactive) in the experiment with A549; > 100 µM (inactive) in the experiment with MOLT-4; 15.7 µM (inactive) in the experiment with NCI-H23; 17.7 µM (inactive) in the experiment with HCT-116; 22.3 µM in the experiment on HCT-15; 19.4 µM (inactive) in the experiment with HOP-92. In addition, the GI50 is 46.8 µM (inactive) in the experiment on SNB-19; 17.3 µM (inactive) with NCI-H460; 22.1 µM (inactive) in the experiment on SK-MEL-5; 37.2 µM (inactive) in the experiment on SF-539; 30 µM (inactive) in the experiment on NCI/ADR-RES; 20 µM (inactive) in the experiment on IGROV-1. For the same compound, the GI50 in the experiment on EKVX is 24.5 µM (inactive); in the experiment on Malme-3M, 22.2 µM (inactive); in the experiment with MDA-MB-435 it was 32.2 µM (inactive); in the experiment with HT-29, 23 µM (inactive); in the experiment with OVCAR-8, 34.3 µM (inactive); in the experiment with OVCAR-4, 47.2 µM (inactive). Moreover, the GI50 in the experiment on RXF 393 is 17.3 µM (inactive).
